Drawing on patent US12091426B2, “Bifunctional degraders of hematopoietic progenitor kinase and therapeutic uses thereof” (Nurix Therapeutics, Inc., priority 2021, dated 2024), this text covers DC50 and Dmax for 13 compounds.

In this experiment the target is T1, HPK1 (Homo sapiens, UniProt Q92918).
T1 construct: A HiBiT tag was introduced by CRISPR on the N terminus of HPK1 in Jurkat cells; host or cells: Jurkat cells (ATCC TIB-152), monoclonal line with CRISPR knock-in of HiBiT at the endogenous HPK1 locus
The experiment is described as follows: HPK1 Cellular HiBit Degradation Assay. The format is cell-based. Particulars: HiBiT HPK1 Jurkat cells, 24 hrs; for DC50: concentration at which 50% of HPK1 was remaining, read-out: DC50 Category; for Dmax: Jurkat, maximum degradation vs DMSO vehicle control, read-out: Dmax Category. The method, boiled down:
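Degraders are dosed in an 11-point series (10 uM to 0.1 nM final) onto Jurkat cells carrying an N-terminal HiBiT tag on endogenous HPK1. After 24 hrs at 37° C, lysis-based HiBiT luminescence quantifies remaining HPK1 relative to vehicle, and curve fitting gives DC50 and Dmax.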
In general terms: With HiBiT, luminescence reflects the tagged protein that the partner subunit can reach.

Structures are written as SMILES. Where only a bound is given, the exact number is not on record here.

T1 sequence (Q92918 whole entry): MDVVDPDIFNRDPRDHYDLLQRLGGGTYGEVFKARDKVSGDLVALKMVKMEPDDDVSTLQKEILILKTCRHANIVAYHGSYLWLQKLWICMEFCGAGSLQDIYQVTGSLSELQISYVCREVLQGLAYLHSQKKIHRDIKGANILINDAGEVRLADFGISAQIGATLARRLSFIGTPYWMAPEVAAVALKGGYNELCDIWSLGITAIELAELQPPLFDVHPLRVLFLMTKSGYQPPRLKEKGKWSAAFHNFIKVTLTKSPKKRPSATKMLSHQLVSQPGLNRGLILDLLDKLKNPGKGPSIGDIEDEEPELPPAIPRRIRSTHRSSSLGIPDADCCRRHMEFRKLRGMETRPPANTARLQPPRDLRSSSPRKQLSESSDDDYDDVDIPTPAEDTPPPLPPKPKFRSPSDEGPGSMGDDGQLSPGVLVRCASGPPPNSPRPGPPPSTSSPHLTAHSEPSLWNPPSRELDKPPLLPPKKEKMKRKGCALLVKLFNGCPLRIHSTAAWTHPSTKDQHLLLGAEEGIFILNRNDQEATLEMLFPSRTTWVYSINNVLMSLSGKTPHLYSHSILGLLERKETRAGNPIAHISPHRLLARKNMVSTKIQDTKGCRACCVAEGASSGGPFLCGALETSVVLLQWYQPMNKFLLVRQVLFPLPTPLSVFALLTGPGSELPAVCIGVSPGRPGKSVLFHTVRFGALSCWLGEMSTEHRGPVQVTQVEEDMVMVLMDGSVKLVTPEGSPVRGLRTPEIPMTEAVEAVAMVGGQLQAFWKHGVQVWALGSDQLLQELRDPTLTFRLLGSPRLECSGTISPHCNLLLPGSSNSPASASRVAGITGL

One may read the DC50 as the midpoint of the concentration-degradation curve. As usually defined, the Dmax is the largest share of the target that was removed. Regarding `CC(C)n1cnc2cc(-c3ccc4c(c3)N([C@H]3C[C@@H](N5CCCCC5)C3)C(=O)C43CCN(C(=O)C4CCN(C(=O)C5CCN(c6ccc(N7CCC(=O)NC7=O)cc6)CC5)CC4)CC3)nc(Nc3ccncc3F)c21` [Example 71, 1-[4-(4-{4-[(6-{4-[(3-Fluoropyridin-4-yl)amino]-3-(propan-2-yl)-3H-imidazo[4,5-c]pyridin-6-yl}-2-oxo-1-[(1S,3S)-3-(piperidin-1-yl)cyclobutyl]-1,2-dihydrospiro[indole-3,4′-piperidin]-1′-yl)carbonyl]piperidine-1-carbonyl}piperidin-1-yl)phenyl]-1,3-diazinane-2,4-dione], the DC50 is under 0.1 µM and the maximal degradation (Dmax) was 70 to 85%.
For `CC(C)n1cnc2cc(-c3ccc4c(c3)N([C@H]3C[C@@H](N5CCCCC5)C3)C(=O)C43CCN(C(=O)C4CCN(C(=O)C5CCN(c6ccc(C7CCC(=O)NC7=O)cn6)CC5)CC4)CC3)nc(NC3CC3)c21` (stereo partly drawn) [Example 73, 3-(6-(4-(4-(6-(4-(cyclopropylamino)-3-isopropyl-3H-imidazo[4,5-c]pyridin-6-yl)-2-oxo-1-((1S,3S)-3-(piperidin-1-yl)cyclobutyl)spiro[indoline-3,4′-piperidine]-1′-carbonyl)piperidine-1-carbonyl)piperidin-1-yl)pyridin-3-yl)piperidine-2,6-dione] the same measures were 0.1 to 0.5 µM and 70 to 85%.
On to `CC(C)n1cnc2cc(-c3ccc4c(c3)N([C@H]3C[C@@H](N5CCCCC5)C3)C(=O)C43CCN(C(=O)C4CCN(C(=O)C5CCN(c6ccc(N7CCC(=O)NC7=O)cn6)CC5)CC4)CC3)nc(NC3CC3)c21` [Example 79, 1-(6-{4-[4-({6-[4-(cyclopropylamino)-3-(propan-2-yl)-3H-imidazo[4,5-c]pyridin-6-yl]-2-oxo-1-[(1S,3S)-3-(piperidin-1-yl)cyclobutyl]-1,2-dihydrospiro[indole-3,4′-piperidin]-1′-yl}carbonyl)piperidine-1-carbonyl]piperidin-1-yl}pyridin-3-yl)-1,3-diazinane-2,4-dione], for which the DC50 is under 0.1 µM and the Dmax lay in the range of 50 to 70%.
As to `CC(C)n1cnc2cc(-c3ccc4c(c3)N([C@H]3C[C@@H](N5CCCCC5)C3)C(=O)C43CCN(C(=O)C4CCN(C(=O)C5CCN(c6ccc(N7CCC(=O)NC7=O)cn6)CC5)CC4)CC3)nc(Nc3ccccc3F)c21` [Example 80, 1-[6-(4-{4-[(6-{4-[(2-fluorophenyl)amino]-3-(propan-2-yl)-3H-imidazo[4,5-c]pyridin-6-yl}-2-oxo-1-[(1S,3S)-3-(piperidin-1-yl)cyclobutyl]-1,2-dihydrospiro[indole-3,4′-piperidin]-1′-yl)carbonyl]piperidine-1-carbonyl}piperidin-1-yl)pyridin-3-yl]-1,3-diazinane-2,4-dione], the DC50 was under 0.1 µM and the Dmax was in the range of 70 to 85%.
Regarding `CC(C)n1cnc2cc(-c3ccc4c(c3)N([C@H]3C[C@@H](N5CCCCC5)C3)C(=O)C43CCN(C(=O)C4CCN(C(=O)C5CCN(c6ccc(N7CCC(=O)NC7=O)cn6)CC5)CC4)CC3)nc(Nc3ccncc3F)c21` [Example 81, 1-[6-(4-{4-[(6-{4-[(3-Fluoropyridin-4-yl)amino]-3-(propan-2-yl)-3H-imidazo[4,5-c]pyridin-6-yl}-2-oxo-1-[(1S,3S)-3-(piperidin-1-yl)cyclobutyl]-1,2-dihydrospiro[indole-3,4′-piperidin]-1′-yl)carbonyl]piperidine-1-carbonyl}piperidin-1-yl)pyridin-3-yl]-1,3-diazinane-2,4-dione], the half-maximal degradation concentration (DC50) is under 0.1 µM and the Dmax was in the range of 50 to 70%.
`CC(C)n1cnc2cc(-c3ccc4c(c3)N([C@H]3C[C@@H](N5CCCCC5)C3)C(=O)C43CCN(C(=O)C4CCN(C(=O)C5CCN(c6ccc(C7CCC(=O)NC7=O)nc6)CC5)CC4)CC3)nc(NC3CC3)c21` (stereo partly drawn) [Example 84, 3-(5-{4-[4-({6-[4-(cyclopropylamino)-3-(propan-2-yl)-3H-imidazo[4,5-c]pyridin-6-yl]-2-Oxo-1-[(1S,3S)-3-(piperidin-1-yl)cyclobutyl]-1,2-dihydrospiro[indole-3,4′-piperidin]-1′-yl}carbonyl)piperidine-1-carbonyl]piperidin-1-yl}pyridin-2-yl)piperidine-2,6-dione]: the DC50 was in the range of 0.1 to 0.5 µM and the Dmax fell in the range of 50 to 70%.
For `CC(C)n1cnc2cc(-c3ccc4c(c3)N([C@H]3C[C@@H](N5CCCCC5)C3)C(=O)C43CCN(C(=O)C4CCN(C(=O)C5CCN(c6ccc(C7CCC(=O)NC7=O)nc6)CC5)CC4)CC3)nc(Nc3ccccc3F)c21` (stereo partly drawn) [Example 85, 3-[5-(4-{4-[(6-{4-[(2-fluorophenyl)amino]-3-(propan-2-yl)-3H-imidazo[4,5-c]pyridin-6-yl}-2-oxo-1-[(1S,3S)-3-(piperidin-1-yl)cyclobutyl]-1,2-dihydrospiro[indole-3,4′-piperidin]-1′-yl)carbonyl]piperidine-1-carbonyl}piperidin-1-yl)pyridin-2-yl]piperidine-2,6-dione] the same measures were under 0.1 µM and 70 to 85%.
For `CC(C)n1cnc2cc(-c3ccc4c(c3)N([C@H]3C[C@@H](N5CCCCC5)C3)C(=O)C43CCN(C(=O)C4CCN(C(=O)C5CCN(c6ncc(C7CCC(=O)NC7=O)cn6)CC5)CC4)CC3)nc(Nc3ccccc3F)c21` (stereo partly drawn) [Example 90, 3-(2-(4-(4-(6-(4-((2-fluorophenyl)amino)-3-isopropyl-3H-imidazo[4,5-c]pyridin-6-yl)-2-oxo-1-((1S,3S)-3-(piperidin-1-yl)cyclobutyl)spiro[indoline-3,4′-piperidine]-1′-carbonyl)piperidine-1-carbonyl)piperidin-1-yl)pyrimidin-5-yl)piperidine-2,6-dione], the 50% degradation concentration (DC50) is under 0.1 µM and the greatest degradation seen (Dmax) lay within 70 to 85%.
For `CC(C)n1cnc2cc(-c3ccc4c(c3)N([C@H]3C[C@@H](N5CCCCC5)C3)C(=O)C43CCN(C(=O)C4CCN(C(=O)CC5CCN(c6ccc(C7CCC(=O)NC7=O)cn6)CC5)CC4)CC3)nc(Nc3ccccc3F)c21` (stereo partly drawn) [Example 92, 3-(6-(4-(2-(4-(6-(4-((2-fluorophenyl)amino)-3-isopropyl-3H-imidazo[4,5-c]pyridin-6-yl)-2-oxo-1-((1S,3S)-3-(piperidin-1-yl)cyclobutyl)spiro[indoline-3,4′-piperidine]-1′-carbonyl)piperidin-1-yl)-2-oxoethyl)piperidin-1-yl)pyridin-3-yl)piperidine-2,6-dione] the same measures were under 0.1 µM and 70 to 85%.
The like results for `CC(C)n1cnc2cc(-c3ccc4c(c3)N([C@H]3C[C@@H](N5CCCCC5)C3)C(=O)C43CCN(C(=O)C4(C)CCN(C(=O)[C@H]5CC[C@H](Oc6ccc(N7CCC(=O)NC7=O)cn6)CC5)CC4)CC3)nc(Nc3ccccc3F)c21` [Example 108, 1-(6-{[(1R,4R)-4-{4-[(6-{4-[(2-fluorophenyl)amino]-3-(propan-2-yl)-3H-imidazo[4,5-c]pyridin-6-yl}-2-oxo-1-[(1S,3S)-3-(piperidin-1-yl)cyclobutyl]-1,2-dihydrospiro[indole-3,4′-piperidin]-1′-yl)carbonyl]-4-methylpiperidine-1-carbonyl}cyclohexyl]oxy}pyridin-3-yl)-1,3-diazinane-2,4-dione] were, in that order, under 0.1 µM and 70 to 85%.
Consider `CC(C)n1cnc2cc(-c3ccc4c(c3)N([C@H]3C[C@@H](N5CCCCC5)C3)C(=O)C43CCN(C(=O)C4(C)CCN(C(=O)[C@H]5CC[C@H](Oc6ccc(N7CCC(=O)NC7=O)cn6)CC5)CC4)CC3)nc(Nc3ccncc3F)c21` [Example 109, 1-(6-{[(1R,4R)-4-{4-[(6-{4-[(3-Fluoropyridin-4-yl)amino]-3-(propan-2-yl)-3H-imidazo[4,5-c]pyridin-6-yl}-2-oxo-1-[(1S,3S)-3-(piperidin-1-yl)cyclobutyl]-1,2-dihydrospiro[indole-3,4′-piperidin]-1′-yl)carbonyl]-4-methylpiperidine-1-carbonyl}cyclohexyl]oxy}pyridin-3-yl)-1,3-diazinane-2,4-dione], for which the half-maximal degradation concentration (DC50) lay within 0.1 to 0.5 µM and the Dmax was 50 to 70%.
With `CC(C)n1cnc2cc(-c3ccc4c(c3)N([C@H]3C[C@@H](N5CCCCC5)C3)C(=O)C43CCN(C(=O)C4(C)CCN(C(=O)C5CCN(c6ccc(N7CCC(=O)NC7=O)cn6)CC5)CC4)CC3)nc(NC3CC3)c21` [Example 115, 1-(6-{4-[4-({6-[4-(cyclopropylamino)-3-(propan-2-yl)-3H-imidazo[4,5-c]pyridin-6-yl]-2-oxo-1-[(1S,3S)-3-(piperidin-1-yl)cyclobutyl]-1,2-dihydrospiro[indole-3,4′-piperidin]-1′-yl}carbonyl)-4-methylpiperidine-1-carbonyl]piperidin-1-yl}pyridin-3-yl)-1,3-diazinane-2,4-dione], the DC50 was under 0.1 µM and the Dmax was in the range of 70 to 85%.
For the compound `CC(C)n1cnc2cc(-c3ccc4c(c3)N([C@H]3C[C@@H](N5CCCCC5)C3)C(=O)C43CCN(C(=O)C4(C)CCN(C(=O)C5CCN(c6ccc(N7CCC(=O)NC7=O)cn6)CC5)CC4)CC3)nc(Nc3ccccc3F)c21` [Example 116, 1-[6-(4-{4-[(6-{4-[(2-fluorophenyl)amino]-3-(propan-2-yl)-3H-imidazo[4,5-c]pyridin-6-yl}-2-oxo-1-[(1S,3S)-3-(piperidin-1-yl)cyclobutyl]-1,2-dihydrospiro[indole-3,4′-piperidin]-1′-yl)carbonyl]-4-methylpiperidine-1-carbonyl}piperidin-1-yl)pyridin-3-yl]-1,3-diazinane-2,4-dione], the 50% degradation concentration (DC50) was under 0.1 µM and the Dmax is over 85%.
